Experimental data taken from ChEMBL document CHEMBL3397033, “Bioactive benzofuran derivatives: moracins A-Z in medicinal chemistry” (Eur J Med Chem, 2015).
In brackets after ≈: the same amount, converted by molar mass.

What was measured:
Escherichia coli [1] = assay: Antimicrobial activity against Escherichia coli; assay type: functional
Klebsiella pneumoniae [2] = assay: Antimicrobial activity against Klebsiella pneumoniae; assay type: functional
Pseudomonas aeruginosa [3] = assay: Antimicrobial activity against Pseudomonas aeruginosa; assay type: functional
[4] = Antifungal activity against Fusarium roseum; assay type: functional
[5] = Antifungal activity against Fusarium lateritium f. sp. mori; assay type: functional
[6] = Antifungal activity against Fusarium solani f. sp. mori; assay type: functional
[7] = Antifungal activity against Diaporthe nomurai; assay type: functional
[8] = Antifungal activity against Stigmina mori; assay type: functional
Rosellinia necatrix = assay: Antifungal activity against Rosellinia necatrix; assay type: functional
[9] = Antifungal activity against Cochliobolus miyabeanus; assay type: functional; settings: Bipolaris oryzae
Citrobacter freundii [10] = assay: Antimicrobial activity against Citrobacter freundii by liquid microdilution assay; assay type: functional
Escherichia coli [11] = assay: Antimicrobial activity against Escherichia coli by liquid microdilution assay; assay type: functional
Shigella dysenteriae [12] = assay: Antimicrobial activity against Shigella dysenteriae by liquid microdilution assay; assay type: functional
Pseudomonas aeruginosa [13] = assay: Antimicrobial activity against Pseudomonas aeruginosa by liquid microdilution assay; assay type: functional
Klebsiella pneumoniae [14] = assay: Antimicrobial activity against Klebsiella pneumoniae by liquid microdilution assay; assay type: functional
Salmonella typhi [15] = assay: Antimicrobial activity against Salmonella typhi by liquid microdilution assay; assay type: functional, Salmonella enterica subsp. enterica serovar Typhi; settings: Salmonella enterica
Bacillus cereus [16] = assay: Antimicrobial activity against Bacillus cereus by liquid microdilution assay; assay type: functional
Staphylococcus aureus [17] = assay: Antimicrobial activity against Staphylococcus aureus by liquid microdilution assay; assay type: functional
Enterococcus faecalis [18] = assay: Antimicrobial activity against Streptococcus faecalis by liquid microdilution assay; assay type: functional
Candida albicans [19] = assay: Antimicrobial activity against Candida albicans by liquid microdilution assay; assay type: functional
Microsporum audouinii [20] = assay: Antimicrobial activity against Microsporum audouinii by liquid microdilution assay; assay type: functional
Citrobacter freundii [21] = assay: Microbicidal activity against Citrobacter freundii by liquid microdilution assay; assay type: functional
Escherichia coli [22] = assay: Microbicidal activity against Escherichia coli by liquid microdilution assay; assay type: functional
Shigella dysenteriae [23] = assay: Microbicidal activity against Shigella dysenteriae by liquid microdilution assay; assay type: functional
Klebsiella pneumoniae [24] = assay: Microbicidal activity against Klebsiella pneumoniae by liquid microdilution assay; assay type: functional
Salmonella typhi [25] = assay: Microbicidal activity against Salmonella typhi by liquid microdilution assay; assay type: functional, Salmonella enterica subsp. enterica serovar Typhi; settings: Salmonella enterica
Bacillus cereus [26] = assay: Microbicidal activity against Bacillus cereus by liquid microdilution assay; assay type: functional
Staphylococcus aureus [27] = assay: Microbicidal activity against Staphylococcus aureus by liquid microdilution assay; assay type: functional
Enterococcus faecalis [28] = assay: Microbicidal activity against Streptococcus faecalis by liquid microdilution assay; assay type: functional
Candida albicans [29] = assay: Microbicidal activity against Candida albicans by liquid microdilution assay; assay type: functional
Microsporum audouinii [30] = assay: Microbicidal activity against Microsporum audouinii by liquid microdilution assay; assay type: functional
[31] = Antioxidant activity assessed as DPPH radical scavenging activity measured as discoloration at 12.5 ug/ml; assay type: physicochemical
[32] = Antioxidant activity assessed as DPPH radical scavenging activity measured as discoloration at 25 ug/ml; assay type: physicochemical
[33] = Antioxidant activity assessed as DPPH radical scavenging activity measured as discoloration at 50 ug/ml; assay type: physicochemical
[34] = Antioxidant activity assessed as DPPH radical scavenging activity measured as discoloration at 100 ug/ml; assay type: physicochemical
[35] = Antioxidant activity assessed as DPPH radical scavenging activity; assay type: physicochemical
A549 = assay: Cytotoxicity against human A549 cells after 96 hrs by MTT assay; assay type: functional, cell-based; settings: A549, 96 h
[36] = Cytotoxicity against human Bel7402 cells after 96 hrs by MTT assay; assay type: functional, cell-based; settings: Bel-7402, 96 h
[37] = Cytotoxicity against human BGC823 cells after 96 hrs by MTT assay; assay type: functional, cell-based; settings: BGC-823, 96 h
[38] = Cytotoxicity against human HCT8 cells after 96 hrs by MTT assay; assay type: functional, cell-based; settings: HCT-8, 96 h
A2780 = assay: Cytotoxicity against human A2780 cells after 96 hrs by MTT assay; assay type: functional, cell-based; settings: A2780, 96 h
Pseudomonas aeruginosa [39] = assay: Microbicidal activity against Pseudomonas aeruginosa by liquid microdilution assay; assay type: functional

COc1cc2cc(-c3cc(O)cc(O)c3)oc2cc1OC
MIC (Escherichia coli [1]): > 100 µg/mL | MIC (Klebsiella pneumoniae [2]): > 100 µg/mL | MIC (Pseudomonas aeruginosa [3]): > 100 µg/mL | MIC [4]: 50 µg/mL (≈ 175 µM) | MIC [5]: 200 µg/mL (≈ 699 µM) | MIC [6]: 1000 µg/mL (≈ 3490 µM) | MIC [7]: 1000 µg/mL (≈ 3490 µM) | MIC [8]: 50 µg/mL (≈ 175 µM) | MIC (Rosellinia necatrix): 50 µg/mL (≈ 175 µM) | MIC [9]: 100 µg/mL (≈ 349 µM)

CC1(O)C=Cc2c(c(O)cc3cc(-c4cc(O)cc(O)c4)oc23)OC1 (centres undefined)
MIC (Escherichia coli [1]): > 100 µg/mL | MIC (Klebsiella pneumoniae [2]): > 100 µg/mL | MIC (Pseudomonas aeruginosa [3]): > 100 µg/mL | MIC (Citrobacter freundii [10]): 312 µg/mL (≈ 917 µM) | MIC (Escherichia coli [11]): 10 µg/mL (≈ 29.4 µM) | MIC (Shigella dysenteriae [12]): 78 µg/mL (≈ 229 µM) | MIC (Pseudomonas aeruginosa [13]): 625 µg/mL (≈ 1840 µM) | MIC (Klebsiella pneumoniae [14]): 156 µg/mL (≈ 458 µM) | MIC (Salmonella typhi [15]): 39 µg/mL (≈ 115 µM) | MIC (Bacillus cereus [16]): 10 µg/mL (≈ 29.4 µM) | MIC (Staphylococcus aureus [17]): 156 µg/mL (≈ 458 µM) | MIC (Enterococcus faecalis [18]): 20 µg/mL (≈ 58.8 µM) | MIC (Candida albicans [19]): 312 µg/mL (≈ 917 µM) | MIC (Microsporum audouinii [20]): 78 µg/mL (≈ 229 µM) | MBC (Citrobacter freundii [21]): 625 µg/mL (≈ 1840 µM) | MBC (Escherichia coli [22]): 39 µg/mL (≈ 115 µM) | MBC (Shigella dysenteriae [23]): 156 µg/mL (≈ 458 µM) | MBC (Klebsiella pneumoniae [24]): 312 µg/mL (≈ 917 µM) | MBC (Salmonella typhi [25]): 78 µg/mL (≈ 229 µM) | MBC (Bacillus cereus [26]): 39 µg/mL (≈ 115 µM) | MBC (Staphylococcus aureus [27]): 312 µg/mL (≈ 917 µM) | MBC (Enterococcus faecalis [28]): 78 µg/mL (≈ 229 µM) | MFC (Candida albicans [29]): 625 µg/mL (≈ 1840 µM) | MFC (Microsporum audouinii [30]): 312 µg/mL (≈ 917 µM) | Activity [31]: 38.5% | Activity [32]: 42.09% | Activity [33]: 49.98% | Activity [34]: 53.6% | EC50 [35]: 6.08 µg/mL (≈ 17.9 µM)

Oc1cc(O)cc(-c2cc3cc4ccoc4cc3o2)c1
MIC (Escherichia coli [1]): > 100 µg/mL | MIC (Klebsiella pneumoniae [2]): > 100 µg/mL | MIC (Pseudomonas aeruginosa [3]): > 100 µg/mL | IC50 (A549): 7.3 µg/mL (≈ 27.4 µM) | IC50 [36]: 5.9 µg/mL (≈ 22.2 µM) | IC50 [37]: 3.8 µg/mL (≈ 14.3 µM) | IC50 [38]: 6.4 µg/mL (≈ 24 µM) | IC50 (A2780): 5.9 µg/mL (≈ 22.2 µM)

CC1(C)C=Cc2c(c(O)cc3cc(-c4cc(O)cc(O)c4)oc23)O1
MIC (Escherichia coli [1]): > 100 µg/mL | MIC (Klebsiella pneumoniae [2]): > 100 µg/mL | MIC (Pseudomonas aeruginosa [3]): > 100 µg/mL

COc1c(O)cc2oc(-c3cc(O)cc(O)c3)cc2c1CC=C(C)C
MIC (Escherichia coli [1]): > 100 µg/mL | MIC (Klebsiella pneumoniae [2]): > 100 µg/mL | MIC (Pseudomonas aeruginosa [3]): > 100 µg/mL | MIC (Citrobacter freundii [10]): 156 µg/mL (≈ 458 µM) | MIC (Escherichia coli [11]): 5 µg/mL (≈ 14.7 µM) | MIC (Shigella dysenteriae [12]): 5 µg/mL (≈ 14.7 µM) | MIC (Pseudomonas aeruginosa [13]): 5 µg/mL (≈ 14.7 µM) | MIC (Klebsiella pneumoniae [14]): 39 µg/mL (≈ 115 µM) | MIC (Salmonella typhi [15]): 5 µg/mL (≈ 14.7 µM) | MIC (Bacillus cereus [16]): 5 µg/mL (≈ 14.7 µM) | MIC (Staphylococcus aureus [17]): 10 µg/mL (≈ 29.4 µM) | MIC (Enterococcus faecalis [18]): 10 µg/mL (≈ 29.4 µM) | MIC (Candida albicans [19]): 10 µg/mL (≈ 29.4 µM) | MIC (Microsporum audouinii [20]): 39 µg/mL (≈ 115 µM) | MBC (Citrobacter freundii [21]): 312 µg/mL (≈ 917 µM) | MBC (Escherichia coli [22]): 10 µg/mL (≈ 29.4 µM) | MBC (Shigella dysenteriae [23]): 10 µg/mL (≈ 29.4 µM) | MBC (Pseudomonas aeruginosa [39]): 20 µg/mL (≈ 58.8 µM) | MBC (Klebsiella pneumoniae [24]): 78 µg/mL (≈ 229 µM) | MBC (Salmonella typhi [25]): 20 µg/mL (≈ 58.8 µM) | MBC (Bacillus cereus [26]): 39 µg/mL (≈ 115 µM) | MBC (Staphylococcus aureus [27]): 39 µg/mL (≈ 115 µM) | MBC (Enterococcus faecalis [28]): 39 µg/mL (≈ 115 µM) | MFC (Candida albicans [29]): 20 µg/mL (≈ 58.8 µM) | MFC (Microsporum audouinii [30]): 78 µg/mL (≈ 229 µM) | Activity [31]: 61.58% | Activity [32]: 65.63% | Activity [33]: 71.72% | Activity [34]: 83.04% | EC50 [35]: 4.12 µg/mL (≈ 12.1 µM)

COc1cc2c(c3oc(-c4cc(O)cc(O)c4)cc13)CC=C(C)CO2
MIC (Escherichia coli [1]): > 100 µg/mL | MIC (Klebsiella pneumoniae [2]): > 100 µg/mL | MIC (Pseudomonas aeruginosa [3]): > 100 µg/mL | MIC [4]: 15 µg/mL (≈ 44.3 µM) | MIC [5]: 100 µg/mL (≈ 296 µM) | MIC [6]: 1000 µg/mL (≈ 2960 µM) | MIC [7]: 50 µg/mL (≈ 148 µM) | MIC [8]: 50 µg/mL (≈ 148 µM) | MIC (Rosellinia necatrix): 15 µg/mL (≈ 44.3 µM) | MIC [9]: 50 µg/mL (≈ 148 µM)

COc1cc2oc(-c3cc(O)cc(O)c3)cc2cc1CCC(C)(C)O
MIC (Escherichia coli [1]): > 100 µg/mL | MIC (Klebsiella pneumoniae [2]): > 100 µg/mL | MIC (Pseudomonas aeruginosa [3]): > 100 µg/mL

CC1(C)Oc2cc3oc(-c4cc(O)cc(O)c4)cc3cc2C(O)C1O (centres undefined)
MIC (Escherichia coli [1]): > 100 µg/mL | MIC (Klebsiella pneumoniae [2]): > 100 µg/mL | MIC (Pseudomonas aeruginosa [3]): > 100 µg/mL

CC1=CCc2c(ccc3cc(-c4cc(O)cc(O)c4)oc23)OC1
MIC (Escherichia coli [1]): > 100 µg/mL | MIC (Klebsiella pneumoniae [2]): > 100 µg/mL | MIC (Pseudomonas aeruginosa [3]): > 100 µg/mL | MIC [4]: 15 µg/mL (≈ 48.6 µM) | MIC [5]: 500 µg/mL (≈ 1620 µM) | MIC [6]: 500 µg/mL (≈ 1620 µM) | MIC [7]: 50 µg/mL (≈ 162 µM) | MIC [8]: 50 µg/mL (≈ 162 µM) | MIC (Rosellinia necatrix): 15 µg/mL (≈ 48.6 µM) | MIC [9]: 50 µg/mL (≈ 162 µM)

C/C(=C/Cc1c(O)c2c(c3cc(-c4cc(O)cc(O)c4)oc13)C=CC(C)(C)O2)CCCC(C)(C)O
MIC (Escherichia coli [1]): > 100 µg/mL | MIC (Klebsiella pneumoniae [2]): > 100 µg/mL | MIC (Pseudomonas aeruginosa [3]): > 100 µg/mL | IC50 (A549): > 10 µg/mL | IC50 [36]: > 10 µg/mL | IC50 [37]: 8.3 µg/mL (≈ 17.3 µM) | IC50 [38]: 9.2 µg/mL (≈ 19.2 µM) | IC50 (A2780): > 10 µg/mL
